This is an account of results in ChEMBL document CHEMBL4673275, “Synthesis and biological activity of (±)-7,3',4'-trihydroxyhomoisoflavan and its analogs” (Bioorg Med Chem Lett, 2021).

Molecules are shown by their SMILES. The source made the active and inactive calls. The rule behind the calls is not given here.

In test [1] the target is Acetylcholinesterase (Homo sapiens) (UniProt P22303). Nature of the test: Inhibition of AChE (unknown origin) at 1 to 25 uM. Conditions: dose 1-25 µM.
In test [2] the test system is PC-12. Nature of the test: Induction of neurite outgrowth in rat PC-12 cells at 1 to 30 uM incubated for 48 hrs in presence of NGF. The format is functional, cell-based. The conditions noted are these: dose 1-30 µM.
The test system of test [3] is PC-12. In words: Induction of neurite outgrowth in rat PC-12 cells assessed as cell elongation at 30 uM incubated for 48 hrs in presence of NGF. In kind it is functional, cell-based.
The test system of test [4] is PC-12. Nature of the test: Induction of neurite outgrowth in rat PC-12 cells at 1 to 30 uM incubated for 48 hrs. Conditions: dose 1-30 µM. In kind it is functional, cell-based.

Chain of Acetylcholinesterase (Homo sapiens) (P22303 whole entry): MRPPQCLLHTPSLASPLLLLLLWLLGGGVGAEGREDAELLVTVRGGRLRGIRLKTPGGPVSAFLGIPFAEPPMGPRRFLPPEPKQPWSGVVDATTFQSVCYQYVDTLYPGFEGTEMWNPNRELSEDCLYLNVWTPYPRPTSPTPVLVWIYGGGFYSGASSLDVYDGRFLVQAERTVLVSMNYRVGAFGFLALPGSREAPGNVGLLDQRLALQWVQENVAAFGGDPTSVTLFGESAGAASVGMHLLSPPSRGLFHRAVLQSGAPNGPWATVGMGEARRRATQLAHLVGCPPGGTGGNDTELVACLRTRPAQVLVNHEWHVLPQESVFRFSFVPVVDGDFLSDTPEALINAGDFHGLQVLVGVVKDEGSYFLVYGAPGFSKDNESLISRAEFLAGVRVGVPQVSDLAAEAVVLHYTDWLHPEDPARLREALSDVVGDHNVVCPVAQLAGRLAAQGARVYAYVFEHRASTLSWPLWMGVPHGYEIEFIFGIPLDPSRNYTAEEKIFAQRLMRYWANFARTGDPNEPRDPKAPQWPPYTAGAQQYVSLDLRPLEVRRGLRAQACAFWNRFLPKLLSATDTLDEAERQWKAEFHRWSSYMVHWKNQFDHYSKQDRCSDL

With `O=C(O)/C=C/c1ccc(O)c(O)c1`, the inhibition result in test [1] is “Active”.
With `Oc1ccc(CC2COc3ccccc3C2)cc1O` (stereo not drawn), the result in test [2] and in test [3] was Active. Further, the inhibition result in test [1] is “Active”. In addition, the result in test [4] was inactive.
Regarding `Oc1ccc(CC2COc3ccccc3C2)cc1` (stereo not drawn), the result in test [2] and in test [3] was Active. Moreover, the inhibition result in test [1] was “inactive”. The outcome in test [4] was inactive.
Consider `Oc1ccc2c(c1)OCC(Cc1ccc(O)c(O)c1)C2` (racemic), for which the outcome in test [2] and in test [3] was Active. The inhibition result in test [1] is “Active”. The result in test [4] was inactive.
Consider `O=c1c(Cc2ccc(O)c(O)c2)coc2ccccc12`, for which the result in test [2] and in test [3] was Active. Moreover, the inhibition result in test [1] was “Active”. In test [4], the outcome was inactive.
On to `CN(C)C(=O)Oc1cccc([N+](C)(C)C)c1`, for which, in test [1], the inhibition result is “Active”.
